Data published in US10561703B2, “Method of modulating sex hormone levels using a sex hormone secretion modulator” (GEMVAX & KAEL CO., LTD., priority 2013, dated 2020).

Test system: LH
Assay: LH level in blood (serum CLIA) after repeated sc PEP-1
Assay type: in vivo, SD rats
Protocol: PEP-1 (peptide of SEQ ID NO: 1), lyophilized white powder, obtained according to the method mentioned in example 1 was dissolved in 0.9% of saline, considering the correction factor of PEP-1 (purity: 94.13%, content: 92.36%, correction factor: 1.15). 50 mg/mL stock solution was further diluted into 20 mg/mL, 2 mg/mL, and 1 mg/mL with 0.9% saline, and stored at 4° C. for a week until the use.
The purpose of this example is to confirm the change of sexual hormones in blood from SD rats with 7 days repeated daily administration of SEQ ID NO: 1 peptide, PEP-1. This experiment followed the Ethics Regulation of Animal Test by KAMSI Inc. (Korea Animal Medical Science Institute). In addition, this experiment, Non-GLP experiment, referred to the MFDS (Ministry of Food and Drug Safety) notification; Agent 2013-40 (5th April 2013), Principles of Good Laboratory Practice (1997).
SPF Rats (Crlj:CD(SD)) were purchased from ORIENTBio Inc. (Mokdong-ri, Buk-myeon, Gapyeong-gun, Gyeonggi-do, Republic of Korea). 75 male (6.5 weeks old and 190˜210 g) and 75 female (6.5 weeks old and 160˜180 g) rats were monitored for 4 days, and 64 of male and female rats (each) were selected for the experiment. Raising condition is as follows; 23±3° C. of temperature, […] of relative humidity, 10˜20 times/hr of number of air changes, 12 hours (8 a.m.˜8 p.m.) of lighting with 150˜300 Lux of intensity.
64 male and female […] (mentioned above) were divided into 8 groups. Administration regimen, for example, drugs, routes, dosages, and volumes were as follows:
The detailed administration regimen is as follows; once a day, twice a day and twice a week in each experimental group. Injection initiated at 10 a.m. every day, and each rat was injected at one minute intervals. Rats in Group 9, 10, 13 and 14 were injected twice a week. Administration of high dose test agent preceded that of low dose. The volume of injection was calculated using recently measured weight of rats, and it was 5 mL/kg. Subcutaneous injection was performed as follows; assistant tilted the back of rat upward, and experimenter sterilized the back of rat with 70% alcohol, followed by subcutaneous injection of test agent with 26 G syringe.
1.4 mL of blood sample (0.7 mL of serum) was collected after measurement of weight (Day 0). Next day (1 Day), 1.4 mL of blood sample (0.7 mL of serum) was collected twice after injection of test agent (4 hrs and 8 hrs after administration of test agent). For next 6 days (Day 2˜Day 7), 1.4 mL of blood was extracted once everyday (4 hours after injection of test agent). Dose and volume of test agent of each group followed the Table 3, and injection time zone was same every day. Blood was extracted from the jugular vein, and left at room temperature for 30 minutes. Serum was separated using centrifugation (10,000 rpm for 5 minutes), and stored at −70±5° C. in Deep freezer until the use. Blood extraction from each subject was done in the same time zone every day.
A CLIA (Chemi-Luminescence Immune Assay) Kit was used to analyze Testosterone, Estradiol E2, FSH (Follicle stimulating hormone), and LH (Luteinizing hormone). Analysis was completed within 48 hrs after blood extraction (Laboratory Medicine Department, Chung-Ang University Hospital), and detailed method is as follows; One-way ANOVA was used to verify the comparison between the vehicle and PEP-1, and between different doses of PEP-1. For further analysis, Duncan test was used as parametric test and Dunnett's test as non-parametric test. p<0.05 represents the statistical significance, and all statistical analysis was carried out with SPSS 10.1.
LH was analyzed using the samples prepared from example 2. 50 μL of serum was used for analysis. Fundamentals of analysis is Two-site sandwich immunoassay based on direct chemi-luminescent. As mentioned in example 2, CLIA (Chemi-luminescence immune assay) Kit was used, following the manufacture's protocol.

EARPALLTSRLRFIPK (listed as Homo sapiens) [PEP-1, hormone secretion modulator / GnRH analog]
LH level in blood (G11 Male 100 mg/kg sc 1/day x7, 5 days): 0.19 mIU/mL
LH level in blood (G11 Male 100 mg/kg sc 1/day x7, 6 days): 0.21 mIU/mL
LH level in blood (G11 Male 100 mg/kg sc 1/day x7, 7 days): 0.21 mIU/mL
LH level in blood (G11 Male 100 mg/kg sc 1/day x7, pre): 0.1 mIU/mL
LH level in blood (G12 Female 100 mg/kg sc 1/day x7, 4 hr): 0.3 mIU/mL
LH level in blood (G12 Female 100 mg/kg sc 1/day x7, 8 hr): 0.17 mIU/mL
LH level in blood (G12 Female 100 mg/kg sc 1/day x7, 2 days): 0.22 mIU/mL
LH level in blood (G12 Female 100 mg/kg sc 1/day x7, 3 days): 0.22 mIU/mL
LH level in blood (G12 Female 100 mg/kg sc 1/day x7, 4 days): 0.23 mIU/mL
LH level in blood (G12 Female 100 mg/kg sc 1/day x7, 5 days): 0.23 mIU/mL
LH level in blood (G12 Female 100 mg/kg sc 1/day x7, 6 days): 0.28 mIU/mL
LH level in blood (G12 Female 100 mg/kg sc 1/day x7, 7 days): 0.27 mIU/mL
LH level in blood (G12 Female 100 mg/kg sc 1/day x7, pre): 0.13 mIU/mL
LH level in blood (G13 Male 100 mg/kg sc 2/week x2 (days 1,7), 4 hr): 1.52 mIU/mL
LH level in blood (G13 Male 100 mg/kg sc 2/week x2 (days 1,7), 8 hr): 0.21 mIU/mL
LH level in blood (G13 Male 100 mg/kg sc 2/week x2 (days 1,7), 2 days): 0.11 mIU/mL
LH level in blood (G13 Male 100 mg/kg sc 2/week x2 (days 1,7), 3 days): 0.11 mIU/mL
LH level in blood (G13 Male 100 mg/kg sc 2/week x2 (days 1,7), 4 days): 0.14 mIU/mL
LH level in blood (G13 Male 100 mg/kg sc 2/week x2 (days 1,7), 5 days): 0.13 mIU/mL
LH level in blood (G13 Male 100 mg/kg sc 2/week x2 (days 1,7), 6 days): 0.11 mIU/mL
LH level in blood (G13 Male 100 mg/kg sc 2/week x2 (days 1,7), 7 days): 0.99 mIU/mL
LH level in blood (G13 Male 100 mg/kg sc 2/week x2 (days 1,7), pre): 0.12 mIU/mL
LH level in blood (G14 Female 100 mg/kg sc 2/week x2 (days 1,7), 4 hr): 0.44 mIU/mL
LH level in blood (G14 Female 100 mg/kg sc 2/week x2 (days 1,7), 8 hr): 0.18 mIU/mL
LH level in blood (G14 Female 100 mg/kg sc 2/week x2 (days 1,7), 2 days): 0.17 mIU/mL
LH level in blood (G14 Female 100 mg/kg sc 2/week x2 (days 1,7), 3 days): 0.14 mIU/mL
LH level in blood (G14 Female 100 mg/kg sc 2/week x2 (days 1,7), 4 days): 0.09 mIU/mL
LH level in blood (G14 Female 100 mg/kg sc 2/week x2 (days 1,7), 5 days): 0.12 mIU/mL
LH level in blood (G14 Female 100 mg/kg sc 2/week x2 (days 1,7), 6 days): 0.11 mIU/mL
LH level in blood (G14 Female 100 mg/kg sc 2/week x2 (days 1,7), 7 days): 0.57 mIU/mL
LH level in blood (G14 Female 100 mg/kg sc 2/week x2 (days 1,7), pre): 0.12 mIU/mL
LH level in blood (G15 Male 250 mg/kg sc 1/day x7, 4 hr): 1.4 mIU/mL
LH level in blood (G15 Male 250 mg/kg sc 1/day x7, 8 hr): 0.29 mIU/mL
LH level in blood (G15 Male 250 mg/kg sc 1/day x7, 2 days): 0.28 mIU/mL
LH level in blood (G15 Male 250 mg/kg sc 1/day x7, 3 days): 0.2 mIU/mL
LH level in blood (G15 Male 250 mg/kg sc 1/day x7, 4 days): 0.19 mIU/mL
LH level in blood (G15 Male 250 mg/kg sc 1/day x7, 5 days): 0.2 mIU/mL
LH level in blood (G15 Male 250 mg/kg sc 1/day x7, 6 days): 0.21 mIU/mL
LH level in blood (G15 Male 250 mg/kg sc 1/day x7, 7 days): 0.23 mIU/mL
LH level in blood (G15 Male 250 mg/kg sc 1/day x7, pre): 0.12 mIU/mL
LH level in blood (G16 Female 250 mg/kg sc 1/day x7, 4 hr): 0.42 mIU/mL
LH level in blood (G16 Female 250 mg/kg sc 1/day x7, 8 hr): 0.2 mIU/mL
LH level in blood (G16 Female 250 mg/kg sc 1/day x7, 2 days): 0.23 mIU/mL
LH level in blood (G16 Female 250 mg/kg sc 1/day x7, 3 days): 0.22 mIU/mL
LH level in blood (G16 Female 250 mg/kg sc 1/day x7, 4 days): 0.23 mIU/mL
LH level in blood (G16 Female 250 mg/kg sc 1/day x7, 5 days): 0.26 mIU/mL
LH level in blood (G16 Female 250 mg/kg sc 1/day x7, 6 days): 0.28 mIU/mL
LH level in blood (G16 Female 250 mg/kg sc 1/day x7, 7 days): 0.28 mIU/mL
LH level in blood (G16 Female 250 mg/kg sc 1/day x7, pre): 0.11 mIU/mL
Effect on LH secretion (male and female): seems to stimulate the LH secretion
LH level (male, 4 hrs, all groups but vehicle, before administration 0.1 mIU/mL): 0.5-1.5 mIU/mL
